Reference: US20140128402A1, “PHARMACEUTICAL COMBINATION” (IPCA Laboratories Limited, priority 2011, published 2014)

Assays:
Format in all cases: in vivo, Wistar rats
[1] = system: STZ-induced diabetic rats; assay: Study No 1: blood glucose in STZ-induced diabetic rats (HCQ with sitagliptin)
Protocol: (§1) In this experiment 48 Wistar rats weighing 130-150 g of either sex were divided randomly into 8 groups consisting of 6 rats each. The study drugs suspended in vehicle [0.1% w/v suspension of Tween 80 and carboxymethylcellulose (CMC) in water] were administered for orally for 21 days. Group 1 (normal vehicle control) consisted of normal rats that neither received streptozotocin nor any test drug; Group 2 served as streptozotocin induced diabetic control (Diabetes was induced in rats by single administration of streptozotocin (60 mg/kg/i.p) dissolved in 0.1 M-citrate buffer, pH 4.5). Forty-eight hours later, blood samples were collected and glucose levels were determined to confirm the development of diabetes.
Blood glucose level was measured in normal and experimental rats at 1st, 7th, 14th and 21st day of administration. For other biochemical parameters i.e. Insulin, HbA1c, Triglycerides, Total Cholesterol, HDL, SGOT, SGPT, Total Protein, Albumin, Creatinine and Urea Blood samples were collected 1 h after the last dose administration from 18 h fasted rats through the retro-orbital plexus under chloroform anesthesia and analyzed using autoanalyzer (Microlab 2000). Other parameters like body weight, food intake and water intake were evaluated weekly till day 21st.

[2] = system: STZ-induced diabetic rats; assay: Study No 1: body weight, food intake and water intake in STZ-induced diabetic rats; conditions: for AVERAGE WATER INTAKE: oral
Protocol: as §1, with “diabetes. […] Group 3 was diabetic rats treated with dose equivalent to human therapeutic dose of sitagliptin (STG) (11 mg/kg); Group 4 was diabetic rats treated with dose equivalent to human therapeutic dose of Hydroxychloroquine (HCQ) (46 mg/kg), Group 5 was diabetic rats treated with combination of HCQ 46 mg/kg and STG11 mg/kg; […] For other biochemical parameters i.e. […] Other parameters like body weight, food intake and water intake were evaluated weekly till day 21st.” for “diabetes.”

[3] = system: STZ-induced diabetic rats; assay: Study No 1: biochemical parameters in STZ-induced diabetic rats; conditions: after 21 days
Protocol: as §1, with “diabetes. […] Group 3 was diabetic rats treated with dose equivalent to human therapeutic dose of sitagliptin (STG) (11 mg/kg); Group 4 was diabetic rats treated with dose equivalent to human therapeutic dose of Hydroxychloroquine (HCQ) (46 mg/kg), Group 5 was diabetic rats treated with combination of HCQ 46 mg/kg and STG11 mg/kg; […] For other biochemical parameters i.e. […] Other parameters like body weight, food intake and water intake were evaluated weekly till day 21st.” for “diabetes.”

[4] = subtherapeutic dose: STG 5.5, HCQ 23, STG+HCQ 5.5+23 mg/kg/day oral
[5] = therapeutic dose: STG 11, HCQ 46, STG+HCQ 11+46 mg/kg/day oral

SMILES: N[C@@H](CC(=O)N1CCn2c(nnc2C(F)(F)F)C1)Cc1cc(F)c(F)cc1F [STG, Sitagliptin]
- Plasma glucose concentration ([1]; 1st day, subtherapeutic dose: STG 5.5, HCQ 23, STG+HCQ 5.5+23 mg/kg oral): 267.17 ± 12.83 mg/dL
- Plasma glucose concentration ([1]; 1st day, therapeutic dose: STG 11, HCQ 46, STG+HCQ 11+46 mg/kg oral): 258.33 ± 11.57 mg/dL
- Plasma glucose concentration ([1]; 7th day, subtherapeutic dose: STG 5.5, HCQ 23, STG+HCQ 5.5+23 mg/kg oral): 261.83 ± 11.58 mg/dL
- Plasma glucose concentration ([1]; 7th day, therapeutic dose: STG 11, HCQ 46, STG+HCQ 11+46 mg/kg oral): 225.00 ± 12.63 mg/dL
- Plasma glucose concentration ([1]; 14th day, subtherapeutic dose: STG 5.5, HCQ 23, STG+HCQ 5.5+23 mg/kg oral): 227.83 ± 13.95 mg/dL
- Plasma glucose concentration ([1]; 14th day, therapeutic dose: STG 11, HCQ 46, STG+HCQ 11+46 mg/kg oral, 46 mg/kg): 206.17 ± 10.26 mg/dL
- Plasma glucose concentration ([1]; 14th day, therapeutic dose: STG 11, HCQ 46, STG+HCQ 11+46 mg/kg oral, listed as sitagliptin, 46 mg/kg): significant improvement
- Plasma glucose concentration ([1]; 21st day, subtherapeutic dose: STG 5.5, HCQ 23, STG+HCQ 5.5+23 mg/kg oral): 200.83 ± 4.71 mg/dL
- Plasma glucose concentration ([1]; 21st day, therapeutic dose: STG 11, HCQ 46, STG+HCQ 11+46 mg/kg oral): 156.50 ± 12.85 mg/dL
- AVERAGE WATER INTAKE ([2]; Day 1, Sub-The (subtherapeutic dose)): 28.33 mL
- AVERAGE WATER INTAKE ([2]; Day 1, The (therapeutic dose)): 30.67 mL
- Body Weight ([2]; Day 1, subtherapeutic dose: STG 5.5, HCQ 23, STG+HCQ 5.5+23 mg/kg oral): 145.83 ± 12.61 g
- AVERAGE FOOD INTAKE ([2]; Day 1, subtherapeutic dose: STG 5.5, HCQ 23, combination 5.5+23 mg/kg oral): 11.50 g
- Body Weight ([2]; Day 1, therapeutic dose: STG 11, HCQ 46, STG+HCQ 11+46 mg/kg oral): 137.83 ± 6.49 g
- AVERAGE FOOD INTAKE ([2]; Day 1, therapeutic dose: STG 11, HCQ 46, combination 11+46 mg/kg oral): 12.17 g
- AVERAGE WATER INTAKE ([2]; Day 7, Sub-The (subtherapeutic dose)): 27.17 mL
- AVERAGE WATER INTAKE ([2]; Day 7, The (therapeutic dose)): 29.00 mL
- Body Weight ([2]; Day 7, subtherapeutic dose: STG 5.5, HCQ 23, STG+HCQ 5.5+23 mg/kg oral): 147.83 ± 12.37 g
- AVERAGE FOOD INTAKE ([2]; Day 7, subtherapeutic dose: STG 5.5, HCQ 23, combination 5.5+23 mg/kg oral): 11.83 g
- Body Weight ([2]; Day 7, therapeutic dose: STG 11, HCQ 46, STG+HCQ 11+46 mg/kg oral): 142.67 ± 7.45 g
- AVERAGE FOOD INTAKE ([2]; Day 7, therapeutic dose: STG 11, HCQ 46, combination 11+46 mg/kg oral): 10.67 g
- AVERAGE WATER INTAKE ([2]; Day 14, Sub-The (subtherapeutic dose)): 26.67 mL
- AVERAGE WATER INTAKE ([2]; Day 14, The (therapeutic dose)): 28.50 mL
- Body Weight ([2]; Day 14, subtherapeutic dose: STG 5.5, HCQ 23, STG+HCQ 5.5+23 mg/kg oral): 150.50 ± 12.31 g
- AVERAGE FOOD INTAKE ([2]; Day 14, subtherapeutic dose: STG 5.5, HCQ 23, combination 5.5+23 mg/kg oral): 10.83 g
- Body Weight ([2]; Day 14, therapeutic dose: STG 11, HCQ 46, STG+HCQ 11+46 mg/kg oral): 149.00 ± 7.46 g
- AVERAGE FOOD INTAKE ([2]; Day 14, therapeutic dose: STG 11, HCQ 46, combination 11+46 mg/kg oral): 9.83 g
- AVERAGE WATER INTAKE ([2]; Day 21, Sub-The (subtherapeutic dose)): 27.00 mL
- AVERAGE WATER INTAKE ([2]; Day 21, The (therapeutic dose)): 27.17 mL
- AVERAGE FOOD INTAKE ([2]; Day 21, subtherapeutic dose: STG 5.5, HCQ 23, combination 5.5+23 mg/kg oral): 10.33 g
- AVERAGE FOOD INTAKE ([2]; Day 21, therapeutic dose: STG 11, HCQ 46, combination 11+46 mg/kg oral): 8.83 g
- Albumin [3, 4]: 2.20 g/dL
- Creatinine [3, 4]: 1.76
- HDL-C [3, 4]: 23.92 mg/dL
- HbA1c [3, 4]: 5.12
- Insulin (serum) [3, 4]: 4.43
- SGOT [3, 4]: 54.02
- SGPT [3, 4]: 54.64
- TC [3, 4]: 156.69 mg/dL
- TG [3, 4]: 121.91 mg/dL
- Total Protein [3, 4]: 4.15 g/dL
- Urea [3, 4]: 45.05 mg/dL
- Albumin [3, 5]: 2.63 g/dL
- Creatinine [3, 5]: 1.63
- HDL-C [3, 5]: 26.04 mg/dL
- HbA1c [3, 5]: 5.04
- Insulin (serum) [3, 5]: 6.11
- SGOT [3, 5]: 51.47
- SGPT [3, 5]: 55.47
- TC [3, 5]: 146.92 mg/dL
- TG [3, 5]: 116.48 mg/dL
- Total Protein [3, 5]: 4.83 g/dL
- Urea [3, 5]: 23.57 mg/dL
